Values belong to the compound of their own block, whether it stands above or below them. Active and inactive are the calls of the source.
How the values were obtained:
[1] = T. cruzi growth inhibition in host cells, dose response, cell-based, plate reader, dry powder, set 2 (AID 652275); format: functional
[2] = target: T1, Low molecular weight phosphotyrosine protein phosphatase (Homo sapiens, UniProt P24666); format: functional; settings: read-out: IC50_Mean;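 note: Dose-response confirmation assay measuring inhibition of LMPTP enzyme activity by fluorescence intensity read-out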
T1 sequence (P24666 whole entry): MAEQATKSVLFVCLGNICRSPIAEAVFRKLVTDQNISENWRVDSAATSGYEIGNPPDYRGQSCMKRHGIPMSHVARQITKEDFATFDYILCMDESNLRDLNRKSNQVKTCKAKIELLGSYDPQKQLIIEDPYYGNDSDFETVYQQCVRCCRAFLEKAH

Cytochrome P450 2C19 = Cytochrome P450 2C19 (Homo sapiens, UniProt P33261); assay: Cytochrome panel assay with activity outcomes. Panel member name: p450-cyp2c19 Compounds with AC50 equal or less than 10 uM are considered active; format: functional
Cytochrome P450 3A4 = Cytochrome P450 3A4 (Homo sapiens, UniProt P08684);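 note: CYP3A4 tested as one member of a cytochrome P450 panel screen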
Prothrombin = Prothrombin (Homo sapiens, UniProt P00734); assay: Thrombin 1536 HTS Dose Response Confirmation. [Related pubchem assays: 1046 (Thrombin 1536 HTS; hits were confirmed in this assay)]; format: functional
Beta-galactosidase = Beta-galactosidase (Escherichia coli, UniProt Q8VNN2); assay: Dose response counterscreen for EBI2 assay utilizing the enzyme, b-galactosidase.; format: functional
[3] = target: Glucose-6-phosphate 1-dehydrogenase (Homo sapiens, UniProt P11413); assay: inhibition of Homo sapiens G6PD, dose series – biochemical, fluorescence, selectivity assay for P. falciparum G6PD inhibitor project, dose response (AID 504792); format: functional
Paired box protein Pax-8 = Paired box protein Pax-8 (Homo sapiens, UniProt Q06710); assay: PAX8 transcriptional activity inhibition in RMG-I – RMG-I cells, luciferase, cherry-pick, dose response (AID 687027); format: functional, cell-based;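 note: luciferase reporter driven by Pax8 target thyroperoxidase promoter measured by SteadyGlo luminescence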
[4] = IGROV1 cell killing – plate reader, dry powder samples, PAX8 inhibitor project, dose response (AID 743043); format: functional, cell-based; settings: IGROV-1
[5] = OVCAR8 cell viability loss – plate reader, dry powder samples, PAX8 project, dose response (AID 743197); format: functional, cell-based; settings: OVCAR-8
[6] = blockers of HIV-1 envelope-mediated cell-cell fusion – cherry-pick, dose response (AID 652057); format: functional, cell-based
[7] = blockers of HIV-1 ZM109 envelope-driven cell-cell fusion – HeLa effector, CEM target cells, luciferase, cherry-pick, dose response (AID 652058); format: functional, cell-based;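 note: luciferase signal from HIV-1 Env mediated cell-cell fusion of effector and target cells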
[8] = off-target signal loss in HeLa-CEM21 co-culture – HeLa F-luc CTL cells, cherry-picked, counter-screen for HIV-1 Env fusion inhibitor project, dose response (AID 652040); format: functional, cell-based;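 note: potency for signal decrease marking cytotoxic or nonspecific inhibition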
[9] = HIV-1 AD8 envelope cell-cell fusion blockers – cherry-pick, dose response (AID 652062); format: functional, cell-based;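 note: luciferase signal from cell-cell fusion driven by HIV-1 clade B AD8 Env; potency is for inhibitors of fusion seen as a drop in luminescence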
Mu-type opioid receptor = Mu-type opioid receptor (Homo sapiens, UniProt P35372); format: functional, cell-based;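 note: U2OS cells with beta-arrestin recruitment to OPRM1 by beta-gal complementation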
[10] = target: 5-hydroxytryptamine receptor 2A (Mus musculus, UniProt P35363); format: functional, cell-based;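 note: CHO-K1 cells with tagged receptor and beta-arrestin; agonist potency measured as compound-induced activation of the receptor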
[11] = OVCAR-3 cell viability loss – plate reader, dry powder samples, PAX8 inhibitor project, dose response (AID 743044); format: functional, cell-based
[12] = HPDE-C7 pancreatic duct cell viability loss – fluorescence, HTS (AID 430); format: functional, cell-based; settings: Homo sapiens
[13] = viability loss of HPDE-C7K cells – cell-based, fluorescence, HTS, primary screen (AID 431); format: functional; settings: Homo sapiens

Glucose-6-phosphate 1-dehydrogenase, sequence (P11413 whole entry): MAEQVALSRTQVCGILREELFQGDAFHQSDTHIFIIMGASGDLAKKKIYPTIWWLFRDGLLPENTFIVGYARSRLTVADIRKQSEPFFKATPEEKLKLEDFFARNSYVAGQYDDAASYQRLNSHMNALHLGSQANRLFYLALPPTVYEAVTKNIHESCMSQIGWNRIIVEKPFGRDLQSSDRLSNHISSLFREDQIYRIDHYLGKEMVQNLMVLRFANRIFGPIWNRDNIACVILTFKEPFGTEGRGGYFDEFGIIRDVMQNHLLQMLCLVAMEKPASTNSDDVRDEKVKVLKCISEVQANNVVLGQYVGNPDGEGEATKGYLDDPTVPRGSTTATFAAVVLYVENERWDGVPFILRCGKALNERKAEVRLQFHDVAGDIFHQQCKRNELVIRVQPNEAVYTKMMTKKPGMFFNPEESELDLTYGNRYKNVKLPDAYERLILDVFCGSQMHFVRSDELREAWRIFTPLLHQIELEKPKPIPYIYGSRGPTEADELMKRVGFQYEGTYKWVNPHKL
Paired box protein Pax-8, sequence (Q06710 whole entry): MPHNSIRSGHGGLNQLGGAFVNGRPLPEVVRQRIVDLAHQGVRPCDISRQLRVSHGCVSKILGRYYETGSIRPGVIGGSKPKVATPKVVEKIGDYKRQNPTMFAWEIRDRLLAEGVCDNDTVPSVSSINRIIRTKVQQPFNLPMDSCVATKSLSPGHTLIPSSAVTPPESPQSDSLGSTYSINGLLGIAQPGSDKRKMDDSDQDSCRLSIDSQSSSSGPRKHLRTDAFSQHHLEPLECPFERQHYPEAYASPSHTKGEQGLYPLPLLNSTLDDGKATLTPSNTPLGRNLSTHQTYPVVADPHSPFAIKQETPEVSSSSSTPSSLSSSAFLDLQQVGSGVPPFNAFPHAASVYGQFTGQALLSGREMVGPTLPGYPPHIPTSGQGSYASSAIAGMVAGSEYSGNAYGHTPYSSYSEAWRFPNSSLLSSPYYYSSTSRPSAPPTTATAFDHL
Beta-galactosidase, sequence (Q8VNN2 whole entry): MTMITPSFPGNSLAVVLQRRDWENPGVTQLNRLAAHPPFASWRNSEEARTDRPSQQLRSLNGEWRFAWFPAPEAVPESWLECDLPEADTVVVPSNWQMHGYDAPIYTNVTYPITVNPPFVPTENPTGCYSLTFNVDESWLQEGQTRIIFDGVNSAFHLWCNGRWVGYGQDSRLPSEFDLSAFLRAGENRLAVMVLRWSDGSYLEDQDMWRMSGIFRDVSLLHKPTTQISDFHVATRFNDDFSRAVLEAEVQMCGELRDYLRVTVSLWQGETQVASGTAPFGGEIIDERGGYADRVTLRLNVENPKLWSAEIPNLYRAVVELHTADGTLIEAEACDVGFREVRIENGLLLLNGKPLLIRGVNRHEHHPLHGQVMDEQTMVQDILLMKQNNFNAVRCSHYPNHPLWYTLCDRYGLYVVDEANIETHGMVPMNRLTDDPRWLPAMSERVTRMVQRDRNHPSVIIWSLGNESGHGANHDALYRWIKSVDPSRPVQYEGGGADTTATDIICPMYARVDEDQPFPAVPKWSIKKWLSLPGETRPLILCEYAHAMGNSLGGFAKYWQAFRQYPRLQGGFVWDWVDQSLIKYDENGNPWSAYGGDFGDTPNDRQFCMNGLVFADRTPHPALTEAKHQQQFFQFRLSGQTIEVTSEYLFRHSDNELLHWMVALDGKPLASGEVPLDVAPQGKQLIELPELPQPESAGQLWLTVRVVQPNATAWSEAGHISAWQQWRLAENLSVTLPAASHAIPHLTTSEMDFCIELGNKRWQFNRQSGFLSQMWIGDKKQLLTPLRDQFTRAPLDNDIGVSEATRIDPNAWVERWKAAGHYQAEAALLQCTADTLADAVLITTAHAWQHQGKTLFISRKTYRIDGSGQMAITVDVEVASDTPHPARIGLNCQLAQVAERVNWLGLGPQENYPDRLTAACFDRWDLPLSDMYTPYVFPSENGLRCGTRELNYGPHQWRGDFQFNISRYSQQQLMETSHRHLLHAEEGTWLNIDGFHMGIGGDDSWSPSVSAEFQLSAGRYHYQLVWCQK
Cytochrome P450 3A4, sequence (P08684 whole entry): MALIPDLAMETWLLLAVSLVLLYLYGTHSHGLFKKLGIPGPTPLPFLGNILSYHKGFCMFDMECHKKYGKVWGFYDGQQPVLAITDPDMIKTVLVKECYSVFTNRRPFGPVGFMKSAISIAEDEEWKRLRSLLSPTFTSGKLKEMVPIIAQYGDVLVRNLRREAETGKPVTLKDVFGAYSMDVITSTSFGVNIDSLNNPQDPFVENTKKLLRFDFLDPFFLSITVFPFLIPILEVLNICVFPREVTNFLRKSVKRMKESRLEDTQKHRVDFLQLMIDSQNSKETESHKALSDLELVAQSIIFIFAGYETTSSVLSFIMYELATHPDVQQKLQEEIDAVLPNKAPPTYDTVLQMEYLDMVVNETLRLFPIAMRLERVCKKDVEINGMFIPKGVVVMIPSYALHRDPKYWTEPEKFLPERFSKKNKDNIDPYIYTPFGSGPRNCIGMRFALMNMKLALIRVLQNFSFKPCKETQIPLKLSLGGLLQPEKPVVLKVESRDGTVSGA
Cytochrome P450 2C19, sequence (P33261 whole entry): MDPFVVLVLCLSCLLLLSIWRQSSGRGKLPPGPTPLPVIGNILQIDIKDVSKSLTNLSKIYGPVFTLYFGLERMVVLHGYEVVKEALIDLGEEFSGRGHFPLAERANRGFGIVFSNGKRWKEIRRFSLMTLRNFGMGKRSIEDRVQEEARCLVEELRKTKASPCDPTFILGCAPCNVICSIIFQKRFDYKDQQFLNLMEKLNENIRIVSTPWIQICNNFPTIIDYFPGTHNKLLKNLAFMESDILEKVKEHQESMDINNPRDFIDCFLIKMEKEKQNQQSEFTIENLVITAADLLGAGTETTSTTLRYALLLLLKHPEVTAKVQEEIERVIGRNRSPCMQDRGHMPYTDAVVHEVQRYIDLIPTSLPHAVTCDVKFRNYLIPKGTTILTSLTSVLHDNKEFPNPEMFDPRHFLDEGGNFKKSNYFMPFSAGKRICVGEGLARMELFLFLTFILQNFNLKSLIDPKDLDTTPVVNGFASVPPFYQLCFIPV
Mu-type opioid receptor, sequence (P35372 whole entry): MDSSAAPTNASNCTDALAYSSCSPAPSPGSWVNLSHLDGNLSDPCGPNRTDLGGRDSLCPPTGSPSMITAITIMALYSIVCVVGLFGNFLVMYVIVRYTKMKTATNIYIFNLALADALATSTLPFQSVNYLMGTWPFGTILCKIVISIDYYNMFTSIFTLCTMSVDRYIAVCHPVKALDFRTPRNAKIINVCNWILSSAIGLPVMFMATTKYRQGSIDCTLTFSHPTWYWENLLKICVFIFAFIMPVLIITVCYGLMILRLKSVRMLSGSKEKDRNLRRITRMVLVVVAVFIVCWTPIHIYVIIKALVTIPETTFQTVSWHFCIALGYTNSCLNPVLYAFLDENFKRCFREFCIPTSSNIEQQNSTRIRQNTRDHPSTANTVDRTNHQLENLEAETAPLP
5-hydroxytryptamine receptor 2A, sequence (P35363 whole entry): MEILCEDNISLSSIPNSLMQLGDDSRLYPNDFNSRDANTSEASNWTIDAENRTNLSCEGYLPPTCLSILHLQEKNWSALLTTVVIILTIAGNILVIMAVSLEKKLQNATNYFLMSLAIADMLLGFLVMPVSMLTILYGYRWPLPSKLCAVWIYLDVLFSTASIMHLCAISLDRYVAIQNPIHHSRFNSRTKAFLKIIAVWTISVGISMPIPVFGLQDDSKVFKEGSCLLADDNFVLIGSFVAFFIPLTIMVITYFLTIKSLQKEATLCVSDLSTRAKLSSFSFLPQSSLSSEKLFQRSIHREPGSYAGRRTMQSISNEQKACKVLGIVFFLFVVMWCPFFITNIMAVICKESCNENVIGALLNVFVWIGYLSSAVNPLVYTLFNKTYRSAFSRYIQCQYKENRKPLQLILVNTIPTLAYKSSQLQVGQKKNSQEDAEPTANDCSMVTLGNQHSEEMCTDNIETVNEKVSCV

SMILES: CN(C)CC#Cc1cccc(-c2nc(C(=O)NCc3ccc4c(c3)OCO4)cc3c2[C@@H](CCO)N([S+]([O-])C(C)(C)C)C3)c1 (stereo partly specified)
AC50 [1]: 0.0993 µM (active)

SMILES: Nc1nc(-c2ccco2)nn1C(=O)c1ccccc1
IC50 (Prothrombin): 0.926 µM (active)

SMILES: O=C(C[C@H]1CC[C@@H]2[C@H](COC[C@H](O)CN2S(=O)(=O)c2cccc(F)c2)O1)Nc1ccc(-c2ccccc2)cc1
AC50 (Paired box protein Pax-8): 17.2 µM (active)
AC50 [4]: 59.4 µM (active)
AC50 [5]: 42.6 µM (active)

SMILES: O=C(CN(Cc1ccccc1)S(=O)(=O)c1ccc(F)cc1)NCCC1=CCCCC1
AC50 [6]: 2.55 µM (active)
AC50 [7]: 6.77 µM (active)
AC50 [8]: 17.1 µM (active)
AC50 [9]: 38 µM (active)

SMILES: C[C@H](CO)N1C[C@H](C)[C@@H](CN(C)Cc2ccc(Oc3ccccc3)cc2)Oc2ccc(NS(=O)(=O)c3ccc(Cl)cc3)cc2CC1=O
AC50 (Paired box protein Pax-8): 7.43 µM (active)
AC50 [11]: 68.7 µM (active)
AC50 [4]: 67.8 µM (active)
AC50 [5]: 62.6 µM (active)

SMILES: COc1ccc(C(=O)CSc2cc(C)nc3nc(C)nn23)cc1OC
EC50 [12]: > 20 µM (not active)
EC50 [13]: > 20 µM (not active)

Now from value to compound:

IC50 [2]: 80 µM (inactive)
SMILES: CC(=Cc1ccccc1)C=C1SC(=S)N(CCCC(=O)Nc2ccc(C(=O)O)cc2)C1=O

AC50 (Cytochrome P450 2C19): 28.2 µM (inconclusive)
AC50 (Cytochrome P450 3A4): inconclusive
SMILES: O=C(O)CC(c1cccc2ccccc12)n1cccc1 (stereo unspecified)

IC50 (Beta-galactosidase): > 80 µM (inactive)
SMILES: O=C(COc1ccc(Cl)cc1)N1CCN(Cc2ccc3c(c2)OCO3)CC1 [FIPEXIDE]

IC50 [3]: 29.7 µM (inactive)
SMILES: C#CCCc1cscc1/C=[N+](\[O-])c1ccc(C(=O)OCC)cc1

IC50 (Prothrombin): 13.8 µM (active)
SMILES: CCCCOC(=O)n1ccc(C(=O)Nc2ccccc2OC)n1

IC50 [3]: > 80 µM (inactive)
SMILES: CCc1ccccc1N1CSC2=C(C#N)C(c3ccccc3F)CC(=O)N2C1 (stereo unspecified)

EC50 (Mu-type opioid receptor): 92.6 µM (inactive)
EC50 [10]: 0.362 µM (active)
SMILES: CCC(c1nnnn1-c1c(C)cccc1C)N1CCN(C/C=C/c2ccccc2)CC1 (stereo unspecified)

IC50 [3]: > 80 µM (inactive)
SMILES: COc1cccc(C(=O)Nc2nnc(S(=O)(=O)N(C)Cc3ccccc3)s2)c1

IC50 (Beta-galactosidase): 104 µM (inactive)
SMILES: c1ccc(OCCNc2nc(NCC3CC3)nc3cc(-c4ccccc4)sc23)cc1
